The conditions of data set [1]: in vivo; cited from earlier work.
Data set [2] in a line: WST-1 viability of NHDF cells treated with Dox with or without ORC. Conditions: human, NHDF cells (normal human dermal fibroblasts), NHDF cells, 16-18 hours, WST-1; for cytotoxicity at 5 μM: Dox 5 μM; for cytotoxicity at 25 μM: Dox 25 μM; for cytotoxicity at 50 μM: Dox 50 μM. The data set is classed as cell-based, Human. On the procedure: (§1) NU-KNIT® (ORC) patch: NU-KNIT® was cut with an 8 mm punch to form 8 mm circles of Nuknit. These circles were then cut into 4 quarters using sterile scissors (each quarter has a weight of 2.2-2.7 mg, Average 2.44 mg, n=10).
(§2) Day 1: Two 24-well plates were seeded with 15,000 NHDF cells/well using a 15,000 cells/ml suspension according to the plate layout below (representing about 20%-30% confluency of cells).
(§3) The plates were incubated overnight, for 16-18 hours, in a water jacketed 37° C. incubator with 5% CO2.
(§4) The cells at this stage were about 40%-50% confluent.
(§5) Immediately, a NuKnit® ¼ punch was added to the wells according to the plate layout.
(§6) Day 3: The untreated cells at this stage were about 60%-70% confluent. The plate's medium was decanted and replaced with 0.5 ml of Growth medium. 50 μl of WST-1 were added to each well. The plates were then incubated for an additional 4 hours.
(§7) The plates were then read with an ELISA reader at 450 nm and 650 nm Optical Density (OD). Wells containing medium with no cells were used as blank.
(§8) The results obtained by ELISA reader at 650 nm were subtracted from the results obtained at 450 nm per each well separately=sample OD.
(§9) The relative viability of the rest of the wells was calculated according to the following calculation: sample OD/untreated OD×100. The results were depicted in FIG. 2.
(§10) The following experiment was set in order to evaluate the effect of ORC on Doxorubicin activity on Normal Human Dermal Fibroblast (NHDF) cells. Doxorubicin activity will be expressed in relative cell viability compared to untreated cells. […] The final viability of the cells was evaluated with WST-1 staining. WST-1 is a Tetrazolium salts that is only cleaved to Formazan in metabolically active intact cells.

For data set [3], the system named is Normal Human Dermal Fibroblast (NHDF) cells. The data set is described as above. It is filed as cell-based. As to conditions: for Potency increase of Dox in the presence of ORC: with ORC divided by without ORC. On the procedure:
as §1, §2, §3, §4, §5, §6, §7, §8, §9, §10

For data set [4] the following is noted: human, in vivo. The text has this:
Clinically, a half-life of a given compound is the amount of time required for the compound to fall e.g. in the circulation to half its initial administered dose i.e. how long it takes for the body to remove half of the administered dose. Typically, compounds are active for a multiple of their half-life, for example, five times the half-life can be used to describe the time period for a therapy's treatment. In the case of many therapies, this translates into days where the drug is having an effect on targeted tissues. All clinically used and approved drugs will have well described time ranges and amounts for calculating dose and therapy plans. In one embodiment, the performance of the compound in addressing the underlying pathology e.g. malignancy is adjusted in view of the presence of ORC, and/or OC that can localize the therapy at the target site during the limited time the compound is in the body and before it is being processed.
In certain embodiments a “therapeutically effective dose” refers to the median effective dose ED50, for a particular know drug. […] Mean: 1-3 hours. Typically, 5 times the elimination half-life will give the time at which point the drug has been completely eliminated from the body. For Doxorubicin this would be 5-15 hours.

Setting [5] is: with ORC (¼ Nuknit of 8 mm), read-out: With ORC relative reduction of viability (%).
[6] abbreviates: without ORC, read-out: Without ORC relative reduction of viability (%).

Counter-ions that a name gives are not always drawn. Like-named read-outs stand apart in the source and are kept apart here.

Data on six molecules can be found in patent publication US11986489B2, “Method of treating a disease using a glycolytic dependent compound” (Ethicon, Inc., priority 2015, dated 2024).

As for `CO[C@H]1C[C@@H]2CC[C@@H](C)[C@@](O)(O2)C(=O)C(=O)N2CCCC[C@H]2C(=O)O[C@H]([C@H](C)C[C@@H]2CC[C@@H](OC(=O)C(C)(CO)CO)[C@H](OC)C2)CC(=O)[C@H](C)/C=C(\C)[C@@H](O)[C@@H](OC)C(=O)[C@H](C)C[C@H](C)/C=C/C=C/C=C/1C` [Temsirolimus], the half-life entry in data set [1] was “about 17.3 hours”.

Consider `CCN(CC)CCNC(=O)c1c(C)[nH]c(/C=C2\C(=O)Nc3ccc(F)cc32)c1C` [Sunitinib], for which the half-life in data set [1] was 41 to 86 h.

Regarding `CO[C@H]1C[C@@H]2CC[C@@H](C)[C@@](O)(O2)C(=O)C(=O)N2CCCC[C@H]2C(=O)O[C@H]([C@H](C)C[C@@H]2CC[C@@H](OCCO)[C@H](OC)C2)CC(=O)[C@H](C)/C=C(\C)[C@@H](O)[C@@H](OC)C(=O)[C@H](C)C[C@H](C)/C=C/C=C/C=C/1C` [Everolimus], the half-life entry in data set [1] is given as “about 30 hours”.

On to `COc1cccc2c1C(=O)c1c(O)c3c(c(O)c1C2=O)C[C@@](O)(C(=O)CO)C[C@@H]3O[C@H]1C[C@H](N)[C@H](O)[C@H](C)O1` [Dox, Doxorubicin hydrochloride], for which, in data set [2] (setting [5]), the cytotoxicity at 5 μM is around 55%, the cytotoxicity at 25 μM was around 74% and the cytotoxicity at 50 μM turned out to be 80%. In data set [2] (setting [6]), the cytotoxicity at 5 μM was around 30%, the cytotoxicity at 25 μM is around 40% and the cytotoxicity at 50 μM turned out to be 65%. Also, in data set [3] (Dox 5 μM), the “Potency increase of Dox in the presence of ORC” value (“Potency increase of Dox” below) is given as 1.89. Also, in data set [3] (Dox 25 μM), the “Potency increase of Dox” value was determined as 1.83. For the same molecule, in data set [3] (Dox 50 μM), the “Potency increase of Dox” value was found to be 1.24. The “Dox concentration at which the viability reduction is already evident” value in data set [3] (NHDF cells, in the absence of ORC) worked out at 5.0 µM. Moreover, in data set [3] (in the absence of ORC), the “Effect of Dox on the viability of NHDF cells” value was “reduces the viability of NHDF cells, in the absence of ORC in a dose dependent manner”. Further, in data set [4], the “time at which the drug has been completely eliminated from the body” value was in the range of 5 to 15 h. For the same molecule, in data set [1], the “biological half-life, mean” value is 1-3 hours and the “biological half-life, triphasic, third phase” value is 30 hours.

`Cc1ccc(Nc2nccc(N(C)c3ccc4c(C)n(C)nc4c3)n2)cc1S(N)(=O)=O` [Pazopanib]: the half-life result in data set [1] is recorded as “about 31 hours”.

For `CNC(=O)c1cc(Oc2ccc(NC(=O)Nc3ccc(Cl)c(C(F)(F)F)c3)cc2)ccn1` [Sorafenib], the half-life in data set [1] is 20 to 27 h.

By half-life is commonly meant the time in which the quantity being followed falls by half.
